Assay results published in US10844091B2 (priority 2017, dated 2020).
Non-standard residues stand in square brackets, D forms with d.

Columns and labels:
Assay type in all cases: in vivo
rat models with AD = test: Open field (OF) test, scopolamine-induced Alzheimer's disease model; details: scopolamine AD rats; 0.1 mg/kg i.n. 10 days; p<0.05
Description: White random-bred adult male rats weighing 200-240 g were used. Groups of 7 animals per group were formed. 1st group—control, 2nd—pathology, 3rd—comparator drug, 4th-6th—neuropeptides.
(§1) The drugs were administered daily, once a day.
After a course of treatment with the preparations, the CNS function of the animals was evaluated according to the open field (OF), extrapolation escape (EE), and conditioning passive avoidance reflex (CPAR) tests [Guidelines for conducting nonclinical studies of pharmaceuticals/edited by A. N. Mironov, MD, PhD, Part 1, M.: Grief and K, 2012-944 p.; Methods of behavior analysis in neuroscience—London, New York, Washington: CRCPress, 2001.-329 p.], and also The Porsolt swim test (PST) [Methods of behavior analysis in neuroscience—London, New York, Washington: CRCPress, 2001.-329 p; Porsolt R. D. Depression: A new animal model sensitive to antidepressant treatments/R. D. Porsolt, M. LePichon, M. Oalfre//Nature.—1977.—Vol. 266.—P. 730-732.].
The OF and EE tests were conducted on the 1st day, PST—on the 2nd day, CPAR—on the 1st and 10th day post treatment with the preparations. […] The antiamnesic action (AA) in the CPAR test was calculated using Butler's formula [K. S. Radionova. […] The brain was extracted and weighed, and the brain weight coefficient (BWC) was calculated. […]

serotonin = test: Serotonin level in the brain of rat models with Alzheimer's disease; details: donepezil 1 mg/kg, tetrapeptide 0.1 mg/kg
Description: as §1
M. I. Prokhorova, Leningrad, pub.

[1] = Brain weight coefficient (BWC) in rat models with Alzheimer's disease; details: statistically insignificant; donepezil 1 mg/kg, tetrapeptide 0.1 mg/kg
Description: as §1
The OF and EE tests were conducted on the 1st day, PST—on the 2nd day, CPAR—on the 1st and 10th day post treatment with the preparations. […] The antiamnesic action (AA) in the CPAR test was calculated using Butler's formula [K. S. Radionova. […] After that, the animals were removed from the experiment by administering a narcotic, followed by decapitation. The brain was extracted and weighed, and the brain weight coefficient (BWC) was calculated. Immediately after extraction, the brain was frozen in liquid nitrogen and used in subsequent biochemical and histochemical studies. Glucose levels in whole arterial (common carotid artery) and venous (venous cerebral sinus) blood were determined by the glucose oxidase test, the difference in the arterial-venous glucose content was calculated (glucose consumption marker). The levels of average weight molecules—the toxic products of cell biodegradation damaged during the disease (nucleoside derivatives, peptoids, glucuronic acid salts, etc.) in the blood serum (AWM) were calculated [A. N. Kovalevsky. Notes on the screening method of determination average weight molecules/A. N. Kovalevsky, O. Ye. Nifantiev//Lab. Science. […] 35-39].

acetyl-D-Lys-Lys-Arg-Arg-amide (Ac-[dK]KRR-NH2; SMILES CC(=O)N[C@H](CCCCN)C(=O)N[C@@H](CCCCN)C(=O)N[C@@H](CCCNC(=N)N)C(=O)N[C@@H](CCCNC(=N)N)C(N)=O) [tetrapeptide (LYS), peptide acetyl-X-ARG-ARG-amide, X = D- and L-amino acid residues of lysine]
reduction of the number of grooming acts in the OF (rat models with AD): 44.7%
reduction of the serotonin level in the brain (serotonin): 23.8%
reduction of the brain weight coefficient (BWC) [1]: 14.3%
